Laboratory results reported in ChEMBL document CHEMBL1153129, “Multiple bond-conjugated photoinduced nitric oxide releaser working with two-photon excitation” (Bioorg Med Chem Lett, 2010).

Assays:
[1] = Induction of NO release per molar ratio of compound at 250 uM irradiated with 400 to 440 nm light in presence of Fe-DETC complex by ESR spectrometry; type: physicochemical
[2] = Induction of NO release per molar ratio of compound at 250 uM irradiated with 450 to 480 nm light in presence of Fe-DETC complex by ESR spectrometry; type: physicochemical

| SMILES | Activity [1] | Activity [2] |
| --- | --- | --- |
| COc1cc(/C=C/c2cc(C)c([N+](=O)[O-])c(C)c2)c(OC)cc1C#Cc1cc(OC)c(/C=C/c2cc(C)c([N+](=O)[O-])c(C)c2)cc1OC | 9.2% |  |
| COc1cc(/C=C/c2cc(OC)c(/C=C/c3cc(C)c([N+](=O)[O-])c(C)c3)cc2OC)c(OC)cc1/C=C/c1cc(C)c([N+](=O)[O-])c(C)c1 | 1% | 0.86% |
| COc1cc(/C=C/c2cc(C)c([N+](=O)[O-])c(C)c2)c(OC)cc1C#CC#Cc1cc(OC)c(/C=C/c2cc(C)c([N+](=O)[O-])c(C)c2)cc1OC | 9.7% |  |
| COc1cc(/C=C/c2cc(C)c([N+](=O)[O-])c(C)c2)c(OC)cc1/C=C/C=C/c1cc(OC)c(/C=C/c2cc(C)c([N+](=O)[O-])c(C)c2)cc1OC | 0.96% | 0.54% |
